Tests used:
Format in all cases: in vivo, human
[1] = Laboratory hormone levels of supplemented hormones (Example 3)
Protocol: They were also prescribed Dehydroepiandrosterone (DHEA) 5 mg and Nature Throid thyroid hormone supplement 48.75 mg, progesterone 100 mg every night and testosterone cream 4 mg per day for low libido, and they were taking turmeric and krill oil. They started tapering off the plaquenil.
During treatment estradiol 1.0 mg was started and also at this point they were off the plaquenil for 3 weeks totally. […] In addition, their Free T3 (triiodothyronine) was 3.1.
During the treatment regimen, the administered DHEA was increased to 10 mg. The DHEA hormone was measured to be 203, Estradiol 117, progesterone 0.2, T3 3.3.
The patient's levels are at optimal levels where the T3 is in the upper range.

[2] = tested on: Hashimotos Thyroiditis, Fibromyalgia and Eosinophilic Esophaqitis; assay: Case report Example 1: patient treated with LDN and Vitamin D; conditions: LDN 1.5 to 4.5 mg daily, Vitamin D 5,000 then 7,000 units per day
Protocol: Patient's symptoms included severe fatigue and muscle aches and pains over their body from the fibromyalgia. They were already taking Vitamin D at a daily dosage of 5,000 units and 130 mg of Nature Throid supplementation (a porcine product). For the first week of LDN treatment, the patient was administered daily dosages of 1.5 mg LDN and the 5,000 units of Vitamin D continued. During the second week, the daily dosage of LDN was increased to 3.0 mg. During the third week, the daily dosage of LDN was increased to 4.5 mg. […] Administration of Vitamin D was increased to 7,000 units per day.
Her thyroid medication requirements were reduced. Her symptoms of fibromyalgia were resolved after addition of the naltrexone to the regimen.

[3] = tested on: Systemic Lupus Erythematosus (SLE) and Sjorgren's Disease; assay: Case report Example 3: patient treated with naltrexone and Vitamin D3; conditions: plaquenil 200 mg twice a day, before naltrexone
[4] = SpectraCell test of Vitamin D levels (Example 1); conditions: after a month of treatment; Vitamin D 5,000 units daily; 55 is adequate
Excerpt: A sufficient amount can be determined by the skilled person by making a routine assessment of certain parameters of the patient to undergo the administration, such as, but not limited to, age, weight, gender, history of illness and/or other lifestyle factors including smoking, alcohol consumption and the level of exercise. Furthermore the skilled person can ascertain whether a dose has been sufficient to raise the vitamin D blood concentration to a sufficient amount by performing routine biochemical and analytical assays on a biological sample obtained from the subject. Preferably, the sample upon which said analysis is to be performed is blood. Examples of such well known assays include but are not limited to mass spectrometry, where the level of vitamin D or active metabolites thereof can be quantitatively measured. A sufficient amount is therefore an amount that achieves the desired blood vitamin D concentration. The desired concentration can be achieved after single administration or after repeated administrations of a dose of vitamin D or an active metabolite thereof. […]

Thyroiditis = assay: Case report Example 2: patient with thyroiditis treated with LDN and Vitamin D; conditions: 5,000 units of Vitamin D per day, before naltrexone
Excerpt: This antibody activity then can interfere with the ability to incorporate iodine into the thyroid molecule, thus interfering with thyroid cell function.

[5] = Standard serum test of vitamin D level (Example 2)
Protocol: The patient was receiving Synthroid as treatment for hypothyroidism, and they also presented with a rare form of macular degeneration requiring intra-ocular injections and interstitial cystitis. […] At the time they were not aware they had autoimmune thyroiditis.
Their dosage for Nature Throid was 97.5 mg twice a day for their thyroid supplementation. Their vitamin D level was 45 ng/ml, T3 was 4.1 and T4 (thyroxine, which converts into T3 in peripheral tissues) was 0.84. Their thyroid has stabilized as shown by these values; the patient's levels are at optimal levels where the T3 is in the upper range.

[6] = testosterone cream 4 mg per day, later measurements

C[C@]12CC[C@H](O)CC1=CC[C@@H]1[C@@H]2CC[C@]2(C)C(=O)CC[C@@H]12 [DHEA, Dehydroepiandrosterone]
DHEA hormone level ([1]; DHEA increased to 10 mg): 203 | DHEA hormone level ([1]; last laboratory results): 169 | DHEA hormone level ([1]; later measurements): 142

O=C1CC[C@@]2(O)[C@H]3Cc4ccc(O)c5c4[C@@]2(CCN3CC2CC2)[C@H]1O5 [naltrexone, morphinan-6-one,17-(cyclopropylmethyl)-4,5-epoxy-3,14-dihydroxy-(5a)]
fibromyalgia symptoms [2]: resolved

CCN(CCO)CCCC(C)Nc1ccnc2cc(Cl)ccc12 (centres unmarked) [plaquenil]
benefit on symptoms [3]: minimal benefit

C[C@]12CC[C@H]3[C@@H](CCC4=CC(=O)CC[C@@]43C)[C@@H]1CC[C@@H]2O [testosterone]
Free testosterone [1, 6]: 1.3 | total testosterone [1, 6]: 19

Vitamin D
Vitamin D levels (SpectraCell test) [4]: 47 | effect in regards to interstitial cystitis (Thyroiditis): did not seem to have any significant effect | vitamin D 25 OH level ([5]; 5,000 units of vitamin D daily, standard serum test, deficient level): 39 | vitamin D level ([5]; during LDN and Vitamin D treatment): 45 ng/mL

— patent US20230381171A1, “AUTOIMMUNE THERAPY” (LDN Pharma Limited, priority 2018, published 2023)
